IC50 data for 3 compounds are collected here from ChEMBL document CHEMBL1128082, “Inhibition of an HIV-1 Tat-derived peptide binding to TAR RNA by aminoglycoside antibiotics” (Bioorg Med Chem Lett, 1995).

The target in this test is Nucleic Acid. The test is described as follows: Concentration required for the inhibition of HIV- 1 Tat-derived peptide binding to TAR RNA. Type of test: nucleic-acid assay.
In the case of `CN[C@@H]1[C@H](O[C@H]2[C@H](O[C@H]3[C@H](O)[C@@H](O)[C@H](N=C(N)N)[C@@H](O)[C@@H]3N=C(N)N)O[C@@H](C)[C@]2(O)C=O)O[C@@H](CO)[C@H](O)[C@H]1O` [STREPTOMYCIN], the IC50 turned out to be 9.5 µM. This counts as single-digit micromolar.

Compound `NC[C@@H]1O[C@H](O[C@H]2[C@@H](O)[C@H](O[C@@H]3[C@@H](O)[C@H](N)C[C@H](N)[C@H]3O[C@H]3O[C@H](CN)[C@@H](O)[C@H](O)[C@H]3N)O[C@@H]2CO)[C@H](N)[C@@H](O)[C@@H]1O` [FRAMYCETIN] gave an IC50 of 0.92 µM. This IC50 is about 10-fold lower than that of the compound before.

In the case of GENTAMICIN, the IC50 was found to be 45 µM.

Broadly, the IC50 is the point on the concentration scale where inhibition reaches its midpoint. Low values mean inhibition by little substance, high ones a need for much substance.
